From patent US9850283B2, “Macrocyclic inhibitors of the PD-1/PD-L1 and CD80(B7-1)/PD-L1 protein/protein interactions” (BRISTOL-MYERS SQUIBB COMPANY, priority 2013, dated 2017)
Where two headings read alike, the source gives them in different places. Starred links: 1 amine or outer side, 2 acyl side, 3 side chain; linkers in the order of their positions; H or OH if unused. Positions of bridges follow the written chain, without caps; N, C: chain ends. Non-standard residues stand in square brackets, D forms with d. Residues, ends and D or L forms follow the SMILES beside them. ξ: configuration not given here. Phe(3,5-Cl2) = N[C@@H](Cc1cc(Cl)cc(Cl)c1)C(=O)O; Trp(5-OH) = N[C@@H](Cc1c[nH]c2ccc(O)cc12)C(=O)O; X15 = O=C([C@H](Cc1ccc(Cl)c(F)c1)N[*:1])[*:2]; Phe(3-Cl) = N[C@@H](Cc1cccc(Cl)c1)C(=O)O; Hyp = O=C(O)[C@@H]1C[C@@H](O)CN1; NMeF = CN[C@@H](Cc1ccccc1)C(=O)O; NMeNle = CCCC[C@H](NC)C(=O)O; NMeM = CN[C@@H](CCSC)C(=O)O; NMeA = CN[C@@H](C)C(=O)O; Dap = NC[C@H](N)C(=O)O; ξC = NC(CS)C(=O)O; Sar = CNCC(=O)O

How the values were obtained:
Human PD-L1/PD-1 = molecular target: T1, Human PD-L1/PD-1 (Homo sapiens, UniProt Q9NZQ7); experiment: HTRF PD-1-Ig/PD-L1-His binding assay (human PD-L1); conditions: cluster symbol; read-out: HTRF IC50 cluster
T1 construct: made in house; host or cells: HEK293T
T1 sequence (Q9NZQ7 with tags, fused parts or gaps): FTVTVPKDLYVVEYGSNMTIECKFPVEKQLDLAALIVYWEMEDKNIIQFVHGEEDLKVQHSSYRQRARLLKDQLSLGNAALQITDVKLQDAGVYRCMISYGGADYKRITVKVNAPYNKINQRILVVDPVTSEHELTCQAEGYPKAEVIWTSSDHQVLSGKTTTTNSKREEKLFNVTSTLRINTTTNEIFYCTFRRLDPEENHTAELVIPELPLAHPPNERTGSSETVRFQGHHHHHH
Method in brief: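 Soluble PD-1-Ig binding to PD-L1-His measured by HTRF in dPBS with 0.1% BSA and 0.05% Tween-20. Detection used europium cryptate anti-Ig antibody (1 nM final) and APC anti-His antibody (20 nM final) added on top of the binding reaction.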

[1] = molecular target: T2, LK35.2-hPD-L1 cells / PE-labeled PD-1-Ig (Homo sapiens, UniProt Q9NZQ7); experiment: LK35.2-hPD-L1 cell binding high-content screening assay; format: cell-based; conditions: cluster symbol, read-out: CBA IC50 cluster
T2 construct: expressed in transfected cells; host or cells: LK35.2 mouse B cell line
T2 sequence (Q9NZQ7 19-290): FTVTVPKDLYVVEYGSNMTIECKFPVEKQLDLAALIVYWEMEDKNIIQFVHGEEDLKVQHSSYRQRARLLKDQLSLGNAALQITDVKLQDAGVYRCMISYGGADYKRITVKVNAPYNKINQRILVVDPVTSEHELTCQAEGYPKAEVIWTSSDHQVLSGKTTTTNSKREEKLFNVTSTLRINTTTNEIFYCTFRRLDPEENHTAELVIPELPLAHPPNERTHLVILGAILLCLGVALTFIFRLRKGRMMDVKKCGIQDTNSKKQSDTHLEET
Method in brief: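 Mouse LK35.2 B cells stably overexpressing human PD-L1 were cultured overnight in RPMI with 10% FCS, then given compound and PE-labeled human PD-1-Ig (1 nM final) for 1 h at 37 °C. After three dPBS washes, bound fluorescence was quantified by high-content imaging.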

[2] = cell binding assay, cell line not given
[3] = cell line of CBA not given (LK35.2-hPD-L1 or 293T-hPD-L1)

SMILES | IC50 (Human PD-L1/PD-1) | IC50 [1, 2] | IC50 [1, 3]
CCCC[C@H]1C(=O)N(C)CC(=O)N[C@@H](CCC(=O)O)C(=O)N[C@@H](C(C)C)C(=O)N(C)[C@@H](Cc2ccccc2)C(=O)N[C@@H](Cc2ccc(O)cc2)C(=O)N(C)CC(=O)N[C@@H](Cc2c[nH]c3ccccc23)C(=O)N[C@@H](Cc2ccc(O)cc2)C(=O)N[C@@H](CC(C)C)C(=O)N[C@H](C(=O)NCC(N)=O)CSCC(=O)N[C@@H](Cc2ccccc2)C(=O)N(C)[C@@H](Cc2ccccc2)C(=O)N1C [Example 3502] (HELM PEPTIDE1{[O=C(C[*:3])[*:2]].F.[meF].[CCCC[C@@H](C(=O)[*:2])N(C)[*:1]].[Sar].E.V.[meF].Y.[Sar].W.Y.L.C.G.[am]}$PEPTIDE1,PEPTIDE1,1:R3-14:R3$$$V2.0) | 6.76 to 30.3 nM | 4.78 to 72.9 nM | 
CCCC[C@H]1C(=O)N(C)CC(=O)N[C@@H](CC(=O)O)C(=O)N[C@@H](C(C)C)C(=O)N(C)[C@@H](Cc2ccccc2)C(=O)N[C@@H](Cc2ccc(O)cc2)C(=O)N(C)CC(=O)N[C@@H](Cc2c[nH]c3ccccc23)C(=O)N[C@@H](Cc2ccc(O)cc2)C(=O)N[C@@H](CC(C)C)C(=O)N[C@H](C(=O)NCC(N)=O)CSCC(=O)N(C)[C@@H](Cc2ccccc2)C(=O)N1C [Example 3052] (HELM PEPTIDE1{[O=C(C[*:3])[*:2]].[meF].[CCCC[C@@H](C(=O)[*:2])N(C)[*:1]].[Sar].D.V.[meF].Y.[Sar].W.Y.L.C.G.[am]}$PEPTIDE1,PEPTIDE1,1:R3-13:R3$$$V2.0) | > 30.5 nM |  | > 74.3 nM
CCCC[C@H]1C(=O)N(C)CC(=O)N[C@@H](CC(=O)O)C(=O)N[C@@H](C(C)C)C(=O)N(C)[C@@H](Cc2ccccc2)C(=O)N[C@@H](Cc2ccc(O)cc2)C(=O)N(C)CC(=O)N[C@@H](Cc2c[nH]c3ccccc23)C(=O)N[C@@H](Cc2ccc(O)cc2)C(=O)N[C@@H](CC(C)C)C(=O)N[C@H](C(=O)NCC(N)=O)CSCC(=O)N[C@@H](Cc2cc(Cl)cc(Cl)c2)C(=O)N(C)[C@@H](Cc2ccccc2)C(=O)N1C [Example 3179] ({CH2CO}-[Phe(3,5-Cl2)][NMeF][NMeNle][Sar]DV[NMeF]Y[Sar]WYLCG-NH2; thioether N-13) | > 30.5 nM |  | 4.78 to 72.9 nM
CCCC[C@H]1C(=O)N(C)CC(=O)N[C@@H](CC(=O)O)C(=O)N[C@@H](C(C)C)C(=O)N(C)[C@@H](Cc2ccccc2)C(=O)N[C@@H](Cc2ccc(O)cc2)C(=O)N(C)CC(=O)N[C@@H](Cc2c[nH]c3ccccc23)C(=O)N[C@@H](Cc2ccc(O)cc2)C(=O)N[C@@H](CC(C)C)C(=O)N[C@H](C(=O)NCC(N)=O)CSCC(=O)N[C@@H](Cc2ccc(Cl)c(F)c2)C(=O)N(C)[C@@H](Cc2ccccc2)C(=O)N1C [Example 3180] ({CH2CO}-[X15][NMeF][NMeNle][Sar]DV[NMeF]Y[Sar]WYLCG-NH2; thioether N-13) | 6.76 to 30.3 nM |  | 0.158 to 4.71 nM
CCCC[C@H]1C(=O)N(C)[C@@H](CCCC)C(=O)N[C@@H](CCCNC(=N)N)C(=O)N[C@H](C(=O)NCC(N)=O)CSCC(=O)N[C@@H](Cc2ccc(O)cc2)C(=O)N(C)[C@@H](C)C(=O)N[C@@H](CN)C(=O)N2CCC[C@H]2C(=O)N[C@@H](Cc2c[nH]cn2)C(=O)N[C@@H](CCC(=O)O)C(=O)N2C[C@H](O)C[C@H]2C(=O)N[C@@H](Cc2c[nH]c3ccccc23)C(=O)N[C@@H](CO)C(=O)N[C@@H](Cc2c[nH]c3ccccc23)C(=O)N1C [Example 5123] ({CH2CO}-Y[NMeA][Dap]PHE[Hyp]WSW[NMeNle][NMeNle]RCG-NH2; thioether N-14) | 6.76 to 30.3 nM | 4.78 to 72.9 nM | 
CCCC[C@H]1C(=O)N(C)CC(=O)N[C@@H](CC(=O)O)C(=O)N[C@@H](C(C)C)C(=O)N(C)[C@@H](Cc2ccccc2)C(=O)N[C@@H](Cc2c[nH]c3ccc(O)cc23)C(=O)N(C)CC(=O)N[C@@H](Cc2c[nH]c3ccccc23)C(=O)N[C@@H](Cc2ccc(O)cc2)C(=O)N[C@@H](CC(C)C)C(=O)N[C@H](C(=O)NCC(N)=O)CSCC(=O)N[C@@H](Cc2ccccc2)C(=O)N(C)[C@@H](Cc2ccccc2)C(=O)N1C [Example 3148] ({CH2CO}-F[NMeF][NMeNle][Sar]DV[NMeF][Trp(5-OH)][Sar]WYLCG-NH2; thioether N-13) | 6.76 to 30.3 nM |  | 4.78 to 72.9 nM
CCCC[C@H]1C(=O)N(C)[C@@H](CCCC)C(=O)N[C@@H](CC(C)C)C(=O)N[C@H](C(=O)NCC(N)=O)CSCC(=O)N[C@@H](Cc2ccc(O)cc2)C(=O)N(C)[C@@H](C)C(=O)N[C@@H](CC(N)=O)C(=O)N2CCC[C@H]2C(=O)N[C@@H](Cc2cnc[nH]2)C(=O)N[C@@H](CC(C)C)C(=O)N2C[C@H](O)C[C@H]2C(=O)N[C@@H](Cc2c[nH]c3ccccc23)C(=O)N[C@@H](CO)C(=O)N[C@@H](Cc2c[nH]c3ccccc23)C(=O)N1C [Example 6025] | 0.385 to 6.74 nM | 0.158 to 4.71 nM | 
CCCC[C@H]1C(=O)N(C)CC(=O)N[C@@H](CC(=O)O)C(=O)N[C@@H](C(C)C)C(=O)N(C)[C@@H](Cc2ccccc2)C(=O)N[C@@H](Cc2ccc(O)cc2)C(=O)N(C)CC(=O)N[C@@H](Cc2c[nH]c3ccccc23)C(=O)N[C@@H](Cc2ccc(O)cc2)C(=O)N[C@@H](CC(C)C)C(=O)N[C@H](C(=O)NCC(N)=O)CSCC(=O)N[C@@H](Cc2ccccc2)C(=O)N(C)[C@@H](CCC(=O)O)C(=O)N1C [Example 3064] (HELM PEPTIDE1{[O=C(C[*:3])[*:2]].F.[meE].[CCCC[C@@H](C(=O)[*:2])N(C)[*:1]].[Sar].D.V.[meF].Y.[Sar].W.Y.L.C.G.[am]}$PEPTIDE1,PEPTIDE1,1:R3-14:R3$$$V2.0) | 6.76 to 30.3 nM |  | > 74.3 nM
CCCC[C@H]1C(=O)N[C@@H](CCCNC(=N)N)C(=O)NC(C(=O)NCC(N)=O)CSCC(=O)N[C@@H](Cc2ccc(O)cc2)C(=O)N(C)[C@@H](C)C(=O)N[C@@H](CC(N)=O)C(=O)N2CCC[C@H]2C(=O)N[C@@H](CO)C(=O)N[C@@H](CC(C)C)C(=O)N2C[C@H](O)C[C@H]2C(=O)N[C@@H](Cc2c[nH]c3ccccc23)C(=O)N[C@@H](CO)C(=O)N[C@@H](Cc2c[nH]c3ccccc23)C(=O)N(C)[C@@H](CCSC)C(=O)N1C (stereo partly shown) [Example 9100] ({CH2CO}-Y[NMeA]NPSL[Hyp]WSW[NMeM][NMeNle]R[ξC]G-NH2; thioether N-14) | 0.385 to 6.74 nM | 0.158 to 4.71 nM | 
CCCC[C@H]1C(=O)N(C)CC(=O)N[C@@H](CC(=O)O)C(=O)N[C@@H](C(C)C)C(=O)N(C)[C@@H](Cc2ccccc2)C(=O)N[C@@H](Cc2ccc(O)cc2)C(=O)N2CCC[C@@H]2C(=O)N[C@@H](Cc2c[nH]c3ccccc23)C(=O)N[C@@H](Cc2ccc(O)cc2)C(=O)N[C@@H](CC(C)C)C(=O)N[C@H](C(N)=O)CSCC(=O)N[C@@H](Cc2cccc(Cl)c2)C(=O)N(C)[C@@H](Cc2ccccc2)C(=O)N1C [Example 3166] ({CH2CO}-[Phe(3-Cl)][NMeF][NMeNle][Sar]DV[NMeF]Y[dP]WYLC-NH2; thioether N-13) | 6.76 to 30.3 nM |  | 0.158 to 4.71 nM
CCCC[C@H]1C(=O)N(C)CC(=O)N[C@@H](CC(=O)O)C(=O)N[C@@H](C(C)C)C(=O)N(C)[C@@H](Cc2ccccc2)C(=O)N[C@@H](CCCNC(=N)N)C(=O)N(C)CC(=O)N[C@@H](Cc2c[nH]c3ccccc23)C(=O)N[C@@H](Cc2ccc(O)cc2)C(=O)N[C@@H](CC(C)C)C(=O)N[C@H](C(=O)NCC(N)=O)CSCC(=O)N[C@@H](Cc2ccccc2)C(=O)N(C)[C@@H](Cc2ccccc2)C(=O)N1C [Example 3506] (HELM PEPTIDE1{[O=C(C[*:3])[*:2]].F.[meF].[CCCC[C@@H](C(=O)[*:2])N(C)[*:1]].[Sar].D.V.[meF].R.[Sar].W.Y.L.C.G.[am]}$PEPTIDE1,PEPTIDE1,1:R3-14:R3$$$V2.0) | 0.385 to 6.74 nM | 4.78 to 72.9 nM | 
